Patent US9561245B2, “Combination treatments for melanoma” (priority 2012, dated 2017)
Read-outs that look alike come from different tables or passages of the source.

How the values were obtained:
[1] = system: M481 metastatic melanoma cells; assay: M481 melanoma xenograft tumor growth in NSG mice (i.p. agents, PLX 4720 chow); format: in vivo
Method: M481 metastatic melanoma cells were implanted in s.c. tissue on right flanks of NSG mice. […] For PLX4720 treatment mice were switched to either a chow diet containing 417 mg/kg PLX4720 or the control chow containing no compound. Tumors were measured every 2-3 day with calipers. Mean±SD is reported (* P<0.05, *** P<0.0005, ns: not significant; two-tailed Student's t test). FIG. 1B, Representative bioluminescence images of melanomas at day 14.
M481 metastatic melanoma cells were implanted in s.c. tissue on right flanks of NSG mice. When tumors became palpable mice were i.p. injected with RO 31-8220 (3 mg/kg) or DMSO. […] Tumors were measured every 2-3 day with calipers. […]
M481 metastatic melanoma cells were implanted in s.c. tissue on right flanks of NSG mice. […] Tumors were measured every 2-3 day with calipers. […]
Transplanting melanoma cells. After sorting, cells were counted and resuspended in staining medium (L15 medium containing 1 mg/ml BSA, 1% penicillin/streptomycin and 10 mM HEPES [pH7.4]) with 25% high protein Matrigel (product 354248; BD Biosciences). […]
Bioluminescence imaging (BLI). Mice were injected with 100 luciferase-GFP+ cells on the right flank and monitored until tumor diameters approached 20 mm, at which point they were imaged along with an uninjected control mouse on an IVIS Imaging System 200 Series (Calliper Life Sciences) using Living Image software. […]

PKGα = conditions: cited from earlier work
MSK1 = MSK1 (Homo sapiens, UniProt O75582); conditions: cited from earlier work
JNK = conditions: rat adipocytes and L6 myotubes; cited from earlier work
glycogen synthase = conditions: rat adipocytes and L6 myotubes; cited from earlier work
MAPK = conditions: rat adipocytes and L6 myotubes; cited from earlier work
ERK2 = conditions: rat adipocytes and L6 myotubes; cited from earlier work
[2] = system: M481, M487 and M610 melanoma cells carrying BRAF V600E mutations; format: in vivo, NSG mice
Method: M481, M487 and M610 melanoma cells carrying BRAF V600E mutations were implanted in s.c. tissue on right flanks of NSG mice. When tumors became palpable, mice were randomized to four different treatments. […] Control mice received vehicle only (200 μl 0.5% promethylcellulose, 0.2% Tween80 and 5% DMSO per day). Tumors were measured every 2-3 days with calipers.
In these experiments metastatic melanoma cells were injected subcutaneously in the right flanks of immunocompromised NSG mice. When tumors became palpable, mice were randomized to four different treatments. […] Control mice received vehicle only (200 μl 0.5% promethylcellulose, 0.2% Tween80 and 5% DMSO per day). Tumors were measured every 2-3 days with calipers.

Sequence of MSK1 (O75582 whole entry, species assumed): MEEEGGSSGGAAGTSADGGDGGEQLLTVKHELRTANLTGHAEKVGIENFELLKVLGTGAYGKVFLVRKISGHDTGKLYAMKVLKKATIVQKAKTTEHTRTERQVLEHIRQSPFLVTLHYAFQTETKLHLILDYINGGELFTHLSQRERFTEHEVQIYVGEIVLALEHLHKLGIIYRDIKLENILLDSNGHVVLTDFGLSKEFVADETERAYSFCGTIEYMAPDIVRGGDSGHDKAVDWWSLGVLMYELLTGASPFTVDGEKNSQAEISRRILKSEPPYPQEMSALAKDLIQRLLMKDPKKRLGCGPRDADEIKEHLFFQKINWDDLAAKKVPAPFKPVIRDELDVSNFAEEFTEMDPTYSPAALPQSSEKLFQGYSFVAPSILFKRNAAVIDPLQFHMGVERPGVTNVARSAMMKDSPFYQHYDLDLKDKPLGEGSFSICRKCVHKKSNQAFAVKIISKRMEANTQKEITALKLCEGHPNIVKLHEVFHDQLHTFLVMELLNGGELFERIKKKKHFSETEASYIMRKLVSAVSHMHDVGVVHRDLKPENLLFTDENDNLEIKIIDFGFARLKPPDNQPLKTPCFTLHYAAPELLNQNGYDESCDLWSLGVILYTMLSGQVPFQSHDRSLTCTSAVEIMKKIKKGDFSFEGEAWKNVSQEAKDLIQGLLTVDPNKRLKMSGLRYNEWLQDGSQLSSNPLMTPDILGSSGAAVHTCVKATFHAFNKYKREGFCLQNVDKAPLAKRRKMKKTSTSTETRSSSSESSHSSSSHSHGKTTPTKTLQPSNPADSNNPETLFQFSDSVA

Cn1cc(C2=C(c3cn(CCCSC(=N)N)c4ccccc34)C(=O)NC2=O)c2ccccc21 [RO 31-8220]
in vivo tumor growth ([1]; RO 31-8220 3 mg/kg i.p. alone): inhibited the growth of a melanoma as well as the BRAF inhibitor (PLX 4720)
IC50 (PKGα): 33 nM
IC50 (MSK1): 8 nM
effect on JNK (JNK): Activates
effect on glycogen synthase (glycogen synthase): Activates
effect on MAPK (MAPK): inhibits
effect on ERK2 (ERK2): inhibits

C[C@H]1O[C@@H](O[C@H]2[C@@H](O)C[C@H](O[C@H]3[C@@H](O)C[C@H](O[C@H]4CC[C@@]5(C)[C@H](CC[C@@H]6[C@@H]5CC[C@]5(C)[C@@H](C7=CC(=O)OC7)CC[C@]65O)C4)O[C@@H]3C)O[C@@H]2C)C[C@H](O)[C@@H]1O [digitoxin]
in vivo tumor growth ([1]; digitoxin 0.5 mg/kg i.p. alone, s.c. xenograft, calipers every 2-3 day): inhibited the growth of a melanoma better than BRAF inhibitor (PLX 4720)
growth of human melanoma xenografts ([2]; digitoxin 0.5 mg/kg/day by oral gavage alone): slowed the growth

CCCS(=O)(=O)Nc1ccc(F)c(C(=O)c2c[nH]c3ncc(Cl)cc23)c1F [PLX 4720]
growth of human melanoma xenografts ([2]; PLX4720 20 mg/kg/day by oral gavage alone): slowed the growth
